According to PubChem BioAssay AID248 (DTP/NCI, 2004):
Several values for one entry are separate records, joined by “and”; a condition that tells them apart may be missing. Identical values can stand only once. Toxic doses and inconclusive results are not listed. Rule as the data show it: active = T/C of 150% or more; inactive = T/C below 125%.

Tested on: L1210 leukemia ip in BDF1 mice, survival T/C
Experiment: NCI In Vivo Anticancer Drug Screen. Data for tumor model L1210 Leukemia (intraperitoneal) in B6D2F1 (BDF1) mice
Details: endpoint: mean survival time, higher = longer survival
Outline: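 In this screen, tumor-bearing mice given compound are compared to those given vehicle, and their survival values are reported as a treated-to-control quotient.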

[1] = dose: 100.0 mg/kg/injection, schedule: Q04DX002 (ip), vehicle: Klucel (hydroxypropylcellulose) (HPC)
[2] = dose: 200.0 mg/kg/injection, schedule: Q04DX002 (ip), vehicle: Klucel (hydroxypropylcellulose) (HPC)
[3] = dose: 100.0 mg/kg/injection, schedule: Q01DX009 (ip), vehicle: saline
[4] = dose: 100.0 mg/kg/injection, schedule: Q04DX003 (ip), vehicle: saline
[5] = dose: 200.0 mg/kg/injection, schedule: Q01DX009 (ip), vehicle: saline
[6] = dose: 200.0 mg/kg/injection, schedule: Q04DX003 (ip), vehicle: saline
[7] = dose: 400.0 mg/kg/injection, schedule: Q01DX009 (ip), vehicle: saline
[8] = dose: 400.0 mg/kg/injection, schedule: Q04DX003 (ip), vehicle: saline

Measured: T/C

CCCCCNc1ccc(C(=O)O)cc1
inactive: dose: 37.5 mg/kg/injection, schedule: Q01DX009 (ip), vehicle: saline 100 % of control | dose: 75.0 mg/kg/injection, schedule: Q01DX001 (ip), vehicle: acetone 88 % of control | dose: 75.0 mg/kg/injection, schedule: Q01DX009 (ip), vehicle: saline 95 % of control | dose: 75.0 mg/kg/injection, schedule: Q04DX003 (ip), vehicle: saline 100 % of control | dose: 150.0 mg/kg/injection, schedule: Q01DX001 (ip), vehicle: acetone 96 % of control | dose: 150.0 mg/kg/injection, schedule: Q01DX009 (ip), vehicle: saline 92 % of control | dose: 150.0 mg/kg/injection, schedule: Q04DX003 (ip), vehicle: saline 97 % of control | dose: 300.0 mg/kg/injection, schedule: Q01DX001 (ip), vehicle: acetone 102 % of control | dose: 300.0 mg/kg/injection, schedule: Q04DX003 (ip), vehicle: saline 97 % of control

CCOC(=O)Nc1ccc(Cl)cc1
inactive: [1] 89 % of control | [2] 108 % of control | dose: 400.0 mg/kg/injection, schedule: Q04DX002 (ip), vehicle: Klucel (hydroxypropylcellulose) (HPC) 108 % of control

CCCCCNC(=O)CC(O)C(=O)NCCCCC (stereo unspecified)
inactive: dose: 100.0 mg/kg/injection, schedule: Q01DX001 (ip), vehicle: other 87 % of control | dose: 200.0 mg/kg/injection, schedule: Q01DX001 (ip), vehicle: other 98 % of control | dose: 400.0 mg/kg/injection, schedule: Q01DX001 (ip), vehicle: other 96 % of control

Nc1cccc2ccc3ccc4ccccc4c3c12
inactive: dose: 100.0 mg/kg/injection, schedule: Q01DX001 (ip), vehicle: Klucel (hydroxypropylcellulose) (HPC) 105 % of control | dose: 200.0 mg/kg/injection, schedule: Q01DX001 (ip), vehicle: Klucel (hydroxypropylcellulose) (HPC) 94 % of control | dose: 400.0 mg/kg/injection, schedule: Q01DX001 (ip), vehicle: Klucel (hydroxypropylcellulose) (HPC) 97 % of control

CC(C)(C)NC(=O)NC(C)(C)C
inactive: dose: 50.0 mg/kg/injection, schedule: Q04DX002 (ip), vehicle: Klucel (hydroxypropylcellulose) (HPC) 95 % of control | [1] 92 % of control | [2] 103 % of control

Cc1cc(C(=O)C(=O)OC(c2ccccc2)c2ccccc2)c(CN2C(=O)c3ccccc3C2=O)c(=O)n1C
inactive: dose: 25.0 mg/kg/injection, schedule: Q04DX002 (ip), vehicle: saline with Tween-80 101 % of control | dose: 50.0 mg/kg/injection, schedule: Q04DX002 (ip), vehicle: saline with Tween-80 108 % of control | dose: 100.0 mg/kg/injection, schedule: Q04DX002 (ip), vehicle: saline with Tween-80 108 % of control

CCOP(=O)(CC(=O)OC)OCC
inactive: dose: 50.0 mg/kg/injection, schedule: Q04DX003 (ip), vehicle: saline 102 % of control | [3] 103 % of control | [4] 100 % of control | [5] 101 % of control | [6] 102 % of control | [7] 88 % of control | [8] 102 % of control

CN(C)c1nc2ccccc2o1
inactive: dose: 100.0 mg/kg/injection, schedule: Q01DX001 (ip), vehicle: carboxymethylcellulose (CMC) 94 % of control | dose: 200.0 mg/kg/injection, schedule: Q01DX001 (ip), vehicle: carboxymethylcellulose (CMC) 102 % of control | dose: 400.0 mg/kg/injection, schedule: Q01DX001 (ip), vehicle: carboxymethylcellulose (CMC) 105 % of control

CC1(C(=O)O)CCC2(C)CCC3(C)C(=CC(=O)C4C5(C)CCC(OC6OC(C(=O)O)C(O)C(O)C6OC6OC(C(=O)O)C(O)C(O)C6O)C(C)(C)C5CCC43C)C2C1 (stereo unspecified)
inactive: dose: 50.0 mg/kg/injection, schedule: Q01DX009 (ip), vehicle: saline 94 % of control | [3] 91 % of control and 107 % of control and 100 % of control | [4] 100 % of control | [5] 91 % of control and 90 % of control and 94 % of control | [6] 105 % of control | [7] 98 % of control and 93 % of control | [8] 103 % of control

Cc1cc(NCCN(C(C)C)C(C)C)nc(/N=C(\N)Nc2ccc(Cl)c(C(F)(F)F)c2)n1
inactive: dose: 1.25 mg/kg/injection, schedule: Q01DX009 (ip), vehicle: Klucel (hydroxypropylcellulose) (HPC) 109 % of control | dose: 2.5 mg/kg/injection, schedule: Q01DX009 (ip), vehicle: Klucel (hydroxypropylcellulose) (HPC) 104 % of control | dose: 5.0 mg/kg/injection, schedule: Q01DX009 (ip), vehicle: Klucel (hydroxypropylcellulose) (HPC) 107 % of control | dose: 9.37 mg/kg/injection, schedule: Q01DX009 (ip), vehicle: Klucel (hydroxypropylcellulose) (HPC) 98 % of control | dose: 10.0 mg/kg/injection, schedule: Q01DX009 (ip), vehicle: Klucel (hydroxypropylcellulose) (HPC) 102 % of control | dose: 18.75 mg/kg/injection, schedule: Q01DX009 (ip), vehicle: Klucel (hydroxypropylcellulose) (HPC) 96 % of control | dose: 20.0 mg/kg/injection, schedule: Q01DX009 (ip), vehicle: Klucel (hydroxypropylcellulose) (HPC) 98 % of control | dose: 75.0 mg/kg/injection, schedule: Q01DX001 (ip), vehicle: other 103 % of control | dose: 75.0 mg/kg/injection, schedule: Q04DX003 (ip), vehicle: Klucel (hydroxypropylcellulose) (HPC) 100 % of control | dose: 150.0 mg/kg/injection, schedule: Q01DX001 (ip), vehicle: other 98 % of control | dose: 150.0 mg/kg/injection, schedule: Q04DX003 (ip), vehicle: Klucel (hydroxypropylcellulose) (HPC) 100 % of control | dose: 300.0 mg/kg/injection, schedule: Q01DX001 (ip), vehicle: other 110 % of control | dose: 300.0 mg/kg/injection, schedule: Q04DX003 (ip), vehicle: Klucel (hydroxypropylcellulose) (HPC) 105 % of control

CCCCNS(=O)(=O)c1ccc(OC)c(N)c1
inactive: dose: 100.0 mg/kg/injection, schedule: Q01DX009 (ip), vehicle: Klucel (hydroxypropylcellulose) (HPC) 98 % of control | dose: 200.0 mg/kg/injection, schedule: Q01DX009 (ip), vehicle: Klucel (hydroxypropylcellulose) (HPC) 104 % of control | dose: 400.0 mg/kg/injection, schedule: Q01DX009 (ip), vehicle: Klucel (hydroxypropylcellulose) (HPC) 97 % of control

CC1C/C(=N/NC(=O)OC(C)(C)C)CC(C)(C)C1 (stereo unspecified)
inactive: dose: 100.0 mg/kg/injection, schedule: Q01DX009 (ip), vehicle: gum acacia 96 % of control | dose: 200.0 mg/kg/injection, schedule: Q01DX009 (ip), vehicle: gum acacia 89 % of control | dose: 400.0 mg/kg/injection, schedule: Q01DX009 (ip), vehicle: gum acacia 87 % of control

OC(CCl)CN1CC[N+]2(CC1)CC[N+]1(CCN(CC(O)CCl)CC1)CC2 (stereo unspecified)
inactive: dose: 37.5 mg/kg/injection, schedule: Q01DX009 (ip), vehicle: water 100 % of control | dose: 59.0 mg/kg/injection, schedule: Q01DX009 (ip), vehicle: water 105 % of control | dose: 75.0 mg/kg/injection, schedule: Q01DX009 (ip), vehicle: water 101 % of control | dose: 88.0 mg/kg/injection, schedule: Q01DX009 (ip), vehicle: water 104 % of control | dose: 132.0 mg/kg/injection, schedule: Q01DX009 (ip), vehicle: water 107 % of control | dose: 150.0 mg/kg/injection, schedule: Q01DX009 (ip), vehicle: water 114 % of control | dose: 200.0 mg/kg/injection, schedule: Q01DX009 (ip), vehicle: water 102 % of control | dose: 300.0 mg/kg/injection, schedule: Q01DX009 (ip), vehicle: water 93 % of control and 95 % of control

CC(C)c1ccc(OS(=O)(=O)c2cccc([N+](=O)[O-])c2)cc1
inactive: dose: 100.0 mg/kg/injection, schedule: Q04DX003 (ip), vehicle: saline with Tween-80 100 % of control | dose: 200.0 mg/kg/injection, schedule: Q04DX003 (ip), vehicle: saline with Tween-80 100 % of control | dose: 400.0 mg/kg/injection, schedule: Q04DX003 (ip), vehicle: saline with Tween-80 98 % of control
